From patent publication US6492137B1, “Response element compositions and assays employing same” (The Salk Institute for Biological Studies, priority 1989, dated 2002) come the findings set out here.

Series [1] concerns F9 teratocarcinoma stem cells. Put plainly: CAT reporter transfection into RA responsive F9 teratocarcinoma stem cells. Type of series: cell-based, mouse. To be noted: RA 1 μM, 24 hours; no transfected receptor. On the procedure: (§1) For cotransfection assays, a monkey kidney cell line CV-1 was kept in Dulbecco's modified Eagle's medium (DMEM) supplemented with 10% charcoal-resin double split calf bovine serum. Transfections were performed via calcium-phosphate precipitation method as described by Umesono, et al. in Cell 57: 1139-1146 (1989), with 0.5 μg of a pRS receptor expression plasmid, 1.0 μg of a reporter CAT plasmid, 5 μg of pRAS-βGAL [Umesono, et al., Cell 57: 1139-1146 (1989)] as an internal control, and 8.5 μg of carrier plasmid pUC19. The cells were transfected for 8 hours; after washing the DNA precipitates, the cells were then incubated for an additional 36 hours with or without the ligand (T3, 100 nM; RA, 1 μM; 1,25-(OH)2 vitamin D3, 100 nM). Cell extracts were prepared for βGAL and CAT assays, as described by Umesono, et al., supra. Transfection of F9 teratocarcinoma cells was carried out employing a similar method except the cells were incubated for 12 hours in the presence of the DNA precipitates, and the RA was added at 1 μM for another 24 hours before harvesting the cells. 2, 5, and 4 μg of the reporter, pRAS-βGAL, and pUC19 were used, respectively.
Similarly, when the same set of reporters as in FIG. 4 were transfected into F9 cells, only MHC-R (5-nucleotide spacer) and TREp are potent RAREs. In contrast, its RARE antecedents (MHC-N, MHC+1, MHC-T) are inert.

Series [2] deals with T1, TRβ (Homo sapiens, UniProt P10828).
T1 sequence (P10828 1-461): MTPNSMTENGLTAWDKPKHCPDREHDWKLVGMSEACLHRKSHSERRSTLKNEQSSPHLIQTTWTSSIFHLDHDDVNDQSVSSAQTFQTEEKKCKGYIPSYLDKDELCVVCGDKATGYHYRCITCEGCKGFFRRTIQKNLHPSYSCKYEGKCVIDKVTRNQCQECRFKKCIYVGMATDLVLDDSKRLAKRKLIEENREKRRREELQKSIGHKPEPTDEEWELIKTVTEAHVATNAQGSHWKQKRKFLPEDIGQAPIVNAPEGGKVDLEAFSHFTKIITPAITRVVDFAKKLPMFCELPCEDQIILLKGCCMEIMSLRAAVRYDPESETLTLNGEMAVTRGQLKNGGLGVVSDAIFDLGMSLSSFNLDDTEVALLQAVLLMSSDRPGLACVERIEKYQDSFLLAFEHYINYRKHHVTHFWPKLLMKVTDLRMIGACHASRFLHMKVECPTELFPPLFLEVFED
Put plainly: Gel retardation DNA-binding assay with TRβ-expressing COS cell extracts. On the set-up: expressed in transfected cells; host or cells: COS cells (whole-cell extract). To be noted: unlabeled competitor oligonucleotide; COS cells expressing TRβ. On the procedure: (§2) For DNA binding assays, COS cells were cultured in DMEM with 10% calf bovine serum and transfected by the calcium phosphate method with 20 μg of the pCMX receptor expression plasmid for 6 hours followed by a glycerol shock. After incubating the transfected COS cells for another 48 hours, the cells were harvested to prepare extracts for the DNA binding assay, carried out as described by Damm et al., Nature 339: 593-597 (1989). The extracts were made in 20 mM HEPES (pH 7.4), 0.4 M KCl, 2 mM DTT and 20% glycerol. A similar method was employed to prepare a whole cell extract from F9 stem cells. For the binding, 5 μg (COS) or 10 μg (F9) of proteins was incubated on ice for 20 minutes, first in 20 mM HEPES, 80 mM KCl, 1 mM DTT, 0.1% NP40, 2.5 μg of poly dI/dC, and 10% glycerol (cold competitor oligonucleotides, when included, were added during this pre-incubation period). Then 40 fmole of ^32P-labeled oligonucleotide probe (1-2×10^5 cpm, prepared by filling-in reaction using Klenow polymerase in the presence of α-^32P-dCTP) was added to the reaction mixture, followed by incubation at room temperature for 30 minutes. The receptor-DNA complexes were resolved by electrophoresis through 5% polyacrylamide gel containing 5% glycerol at 6 V/cm at room temperature.
Oligonucleotides listed in FIG. 3 were used as a probe to test specific DNA-binding of the RARα and TRβ in a gel retardation assay.
Using the mobility shift assay, the DNA-binding capacity of extracts from COS cells expressing TRβ and RARα to these sequences was also tested.

Series [3] addresses T2, RARα (Homo sapiens, UniProt P10276).
T2 sequence (P10276 1-462): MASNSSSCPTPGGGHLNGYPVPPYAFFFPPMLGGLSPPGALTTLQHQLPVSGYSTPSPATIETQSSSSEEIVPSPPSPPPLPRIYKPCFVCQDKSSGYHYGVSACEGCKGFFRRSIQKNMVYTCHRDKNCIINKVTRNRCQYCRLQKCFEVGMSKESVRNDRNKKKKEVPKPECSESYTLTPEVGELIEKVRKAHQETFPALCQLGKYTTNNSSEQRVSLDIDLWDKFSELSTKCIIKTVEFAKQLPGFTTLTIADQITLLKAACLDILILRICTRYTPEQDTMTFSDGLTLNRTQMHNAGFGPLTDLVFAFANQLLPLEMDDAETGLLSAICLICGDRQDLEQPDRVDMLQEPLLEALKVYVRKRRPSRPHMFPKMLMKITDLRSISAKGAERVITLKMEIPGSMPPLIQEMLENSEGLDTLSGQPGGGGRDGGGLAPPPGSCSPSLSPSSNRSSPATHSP
Put plainly: Gel retardation DNA-binding assay with RARα-expressing COS cell extracts. On the set-up: expressed in transfected cells; host or cells: COS cells (whole-cell extract). To be noted: for competition for RARα binding to 32P-labeled βRARE: unlabeled competitor oligonucleotide, COS cell extracts. The protocol:
as §2
Oligonucleotides listed in FIG. 3 were used as a probe to test specific DNA-binding of the RARα and TRβ in a gel retardation assay. On the βRARE, a faint background binding activity was detected in the mock transfected COS cell extract. […] In each case the result obtained from in vivo transactivation and in vitro DNA binding are consistent.
Using the mobility shift assay, the DNA-binding capacity of extracts from COS cells expressing TRβ and RARα to these sequences was also tested. […] This pattern is consistent with that of the in vivo activation (FIG. 4). A reciprocal pattern was obtained when the same oligonucleotides were used to compete RARα binding to the ^32P-labeled βRARE. […] This provides a striking example of the role of half-site spacing in generating a functional response element.

The target in series [4] is T3, Thyroid hormone receptor beta (TRβ), in CV-1 cells (Homo sapiens, UniProt P10828 P10828:1-461).
T3 sequence: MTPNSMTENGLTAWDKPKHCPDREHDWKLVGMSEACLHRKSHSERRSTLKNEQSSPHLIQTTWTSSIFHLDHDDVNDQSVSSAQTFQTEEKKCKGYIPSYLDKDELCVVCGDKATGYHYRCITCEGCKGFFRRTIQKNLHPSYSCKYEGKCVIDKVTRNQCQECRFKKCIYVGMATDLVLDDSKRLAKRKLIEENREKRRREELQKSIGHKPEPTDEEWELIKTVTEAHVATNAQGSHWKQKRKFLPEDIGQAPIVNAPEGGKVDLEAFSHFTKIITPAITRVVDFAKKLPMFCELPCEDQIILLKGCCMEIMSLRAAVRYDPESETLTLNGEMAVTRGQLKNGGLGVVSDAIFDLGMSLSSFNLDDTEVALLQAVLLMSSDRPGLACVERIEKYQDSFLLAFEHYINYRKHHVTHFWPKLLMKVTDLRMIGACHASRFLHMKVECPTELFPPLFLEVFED
Put plainly: cell_activity; T3 100 nM, CV-1. The note with it: tags: pRShTRβ, 5'-agct overhangs. The protocol:
as §1, with “1139–1146” for “1139-1146”, “(T_3,” for “(T3,”, “1,25-(OH)_2” for “1,25-(OH)2”, “D_3,” for “D3,”
(§3) Starting from the MHC-TRE (MHC-N), a set of oligonucleotides (see FIG. 4a) were designed to introduce variations in the half-site spacing (MCH+1), the half-site sequence (MHC-T), or both (MHC-R). A single copy of these oligonucleotides was placed in the basal reporter construct ΔSV-CAT (designated by "(−)" in FIG. 4b), giving rise to a set of CAT reporter plasmids together with one encoding TREp. Parallel cotransfections with expression plasmids for TRβ or RARα were performed in CV-1 cells along with the ΔSV-CAT reporter containing a single copy of the variant HRE. After addition of hormone (RA, 1 μM; T_3, 100 nM), the cell extracts were assayed for the CAT activity by […] the β-galactosidase activity produced by cotransfected pRAS-βGAL. In the figure, numbers in the columns indicate the level of induction of CAT activity by the hormone.

Series [5] has as its target T4, Retinoic acid receptor alpha (RARα), in CV-1 cells (Homo sapiens, UniProt P10276 P10276:1-462).
T4 sequence: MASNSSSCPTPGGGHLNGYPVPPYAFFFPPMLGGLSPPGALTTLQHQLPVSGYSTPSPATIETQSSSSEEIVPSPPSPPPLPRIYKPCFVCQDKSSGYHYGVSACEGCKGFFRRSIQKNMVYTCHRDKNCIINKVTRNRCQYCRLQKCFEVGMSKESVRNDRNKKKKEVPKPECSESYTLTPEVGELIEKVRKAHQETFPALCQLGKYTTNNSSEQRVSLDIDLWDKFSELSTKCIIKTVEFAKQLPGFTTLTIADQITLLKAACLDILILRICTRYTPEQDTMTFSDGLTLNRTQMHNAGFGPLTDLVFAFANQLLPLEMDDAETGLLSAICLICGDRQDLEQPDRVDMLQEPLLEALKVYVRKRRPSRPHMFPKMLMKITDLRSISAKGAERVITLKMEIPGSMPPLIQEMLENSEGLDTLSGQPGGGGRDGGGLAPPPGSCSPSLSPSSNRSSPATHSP
Put plainly: cell_activity; RA 1 µM, CV-1. To be noted: tags: RSV or pRS expression vector; 5'-agct overhangs. On the procedure: as §1, with “1139–1146” for “1139-1146”, “(T_3,” for “(T3,”, “1,25-(OH)_2” for “1,25-(OH)2”, “D_3,” for “D3,”
as §3

On to “MHC-T: MHC-N with the AGGACA half-site corrected to AGGTCA (SEQ ID NO:23) (AGCTGGAGGTGACAGGAGGTCAGCAAGCT; DNA, backbone not given here; double-stranded response element with agct overhangs, cloned into reporter plasmid)”, for which the “function as RARE in F9 cells” value in series [1] is “inert”. Also, the “competition for TRβ binding (mobility shift assay)” value in series [2] is “efficient competition”. Also, the “competition for RARα binding to 32P-labeled βRARE” value in series [3] is given as “fails to compete efficiently”.

For “MHC-R: MHC-T with half-site spacing increased by one nucleotide (SEQ ID NO:24) (AGCTGGAGGTGAACAGGAGGTCAGCAAGCT; DNA, backbone not given here; double-stranded response element with agct overhangs, cloned into reporter plasmid)”, the “function as RARE in F9 cells” value in series [1] is recorded as “potent RAREs”. For the same molecule, in series [2], the “competition for TRβ binding (mobility shift assay)” value is listed as “poor competitors”. Further, in series [3], the “competition for RARα binding to 32P-labeled βRARE” value is listed as “effective competitors”.

On to “DR-5: perfect tandem repeat of AGGTCA hexamers separated by 5 nucleotides (SEQ ID NO:29) (AGCTTCAGGTCACCAGGAGGTCAGAGAGCT; DNA, backbone not given here; double-stranded DNA response element with agct overhangs, cloned into reporter)”, for which the “function as RARE in F9 cells” value in series [1] was “functional RARE”. Besides, the “RARα binding to labeled oligonucleotide probe” value in series [3] (gel retardation, RARα COS cell extract) is given as “specific protein-DNA complex”.

B1: MHC-N (dsDNA)
DNA 1: AGCTGGAGGTGACAGGAGGACAGCAAGCT
DNA 2: AGCTTGCTGTCCTCCTGTCACCTCCAGCT
Regarding B1, the activity in series [4] (label: 32P) was 10 fold induction.

B2: TREp (dsDNA)
DNA 1: AGCTTCAGGTCATGACCTGAGAGCT
DNA 2: AGCTCTCAGGTCATGACCTGAAGCT
In the case of B2, the activity is 9 fold induction in series [5] and 14 fold induction in series [4].

B3: MHC+1 (dsDNA)
DNA 1: AGCTGGAGGTGAACAGGAGGACAGCAAGCT
DNA 2: AGCTTGCTGTCCTCCTGTTCACCTCCAGCT
Take B3: the activity in series [5] was 4 fold induction; in series [4], less than 2 fold induction.

B4: MHC-R (dsDNA)
DNA 1: AGCTGGAGGTGAACAGGAGGTCAGCAAGCT
DNA 2: AGCTTGCTGACCTCCTGTTCACCTCCAGCT
In the case of B4, the activity in series [5] was 7.4 fold induction.

B5: MHC-T (dsDNA)
DNA 1: AGCTGGAGGTGACAGGAGGTCAGCAAGCT
DNA 2: AGCTTGCTGACCTCCTGTCACCTCCAGCT
In the case of B5, the values for the activity in series [5] and in series [4] were 2.6 fold induction and 15 fold induction, respectively.
